Experimental data reported in PMC10443802, “Targeting a xenobiotic transporter to ameliorate vincristine-induced sensory neuropathy” (JCI Insight, 2023).
Values joined by “and” are separate entries in the source; they are usually repeats but may differ in a detail not shown here. Equal values may be shown once.

Legend:
hOATP1B1 = target: T1, hOATP1B1 (Homo sapiens, UniProt Q9Y6L6); test: Inhibition of EβG uptake in HEK293 cells overexpressing hOATP1B1; conditions: inhibitor 10 μM, 15-min pre-incubation
T1 sequence (Q9Y6L6 1-691): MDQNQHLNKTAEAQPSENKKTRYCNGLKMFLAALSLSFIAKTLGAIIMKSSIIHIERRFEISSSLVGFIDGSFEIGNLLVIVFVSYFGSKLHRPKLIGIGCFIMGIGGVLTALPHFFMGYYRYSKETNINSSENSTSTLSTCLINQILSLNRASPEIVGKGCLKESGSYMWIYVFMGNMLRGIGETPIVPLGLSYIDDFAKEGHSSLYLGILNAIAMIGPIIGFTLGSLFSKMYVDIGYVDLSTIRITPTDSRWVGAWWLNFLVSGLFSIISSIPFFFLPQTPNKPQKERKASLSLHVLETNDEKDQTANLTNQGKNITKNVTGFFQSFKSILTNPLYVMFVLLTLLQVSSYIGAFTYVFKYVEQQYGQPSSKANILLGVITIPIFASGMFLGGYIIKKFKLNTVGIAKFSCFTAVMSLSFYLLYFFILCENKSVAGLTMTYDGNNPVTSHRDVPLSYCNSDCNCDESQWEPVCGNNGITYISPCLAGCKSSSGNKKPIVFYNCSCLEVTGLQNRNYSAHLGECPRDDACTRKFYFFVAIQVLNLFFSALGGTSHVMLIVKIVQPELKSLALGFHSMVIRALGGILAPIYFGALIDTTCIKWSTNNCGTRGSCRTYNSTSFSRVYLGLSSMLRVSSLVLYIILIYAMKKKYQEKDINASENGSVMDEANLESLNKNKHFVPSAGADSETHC

[1] = Plasma pharmacokinetics of vincristine in mice; conditions: for concentration at 1 h / concentration at 4 h / concentration at 0.5 h / concentration at 0.25 h / AUC(0-t) / Cmax / concentration at 2 h: mouse, in vivo; for AUC(0-t) / Cmax: male; for AUC(0-t): AUC0-4h
Experimental: were collected at the final time point. […]
specimens were stored at -80°C until further processing. […]
stainless steel bead (Qiagen) and processed for 4 min at 40 Hz. Finally, the beads were removed, and the homogenized samples were stored at -80°C until analysis by LC-MS/MS.
Pharmacokinetic parameters were calculated by non -compartmental analysis using Phoenix WinNonlin version 8.0 (Certara). Peak plasma concentration (C max) was determined by visual inspection of the data from the concentration-time curves. The linear trapezoidal rule was used to obtain the area under the plasma concentration-time curve (AUC), and drug levels in tissues were corrected for […]
Determination of drug levels.
Quantiva triple quadrupole mass spectrometer from Thermo Fisher Scientific was used for LC-MS/MS […]
column was maintained at 50°C. […]
quantification was 5 ng/mL.
450 °C. […] Precursor molecular ions and […]
dose of 4 mg/kg. […] The sample
Morphologic and morphometric evaluation. […]
for light microscopy and morphometric analysis.

hOATP1C1 = hOATP1C1 (Homo sapiens, UniProt Q9NYB5); test: Substrate uptake in HEK293 cells overexpressing hOATP1C1; conditions: HEK293 OATP1C1
Text: transfected with transporters of interest, including hOAT1, hOAT3, hOAT4, hOATP1A2, hOATP3A1, hOATP4A1, hOATP5A1, hOATP1C1, hOATP1B1, hOATP1B3, hOATP2B1, hOCT1, hOCT2, hOCTN1, hOCTN2, hASBT, hNTCP, hNPT1, hMATE1, hOSTα/β, hPEPT1, hPEPT2, rOatp1a1, rOatp1a4, rOatp1a5, rOatp1b2, rNtcp, rAsbt, rOat1, and rOct1. Cells were transfected with expression plasmid or vector control lacking any insert using Lipofectin reagent (Invitrogen). Sixteen hours thereafter, cells were washed with transport media (OPTIMEM, Invitrogen) and treated with radiolabeled drug. At various time intervals, cells were washed three times with ice-cold PBS and then lysed with 1% sodium dodecyl sulfate. The cellular radioactivity was quantified by liquid scintillation counting as described above. Similar analyses were performed in HEK293 cells transfected with hOATP1A2, hOATP1C1, mMATE1, and hMATE1, with cells seeded in poly lysine pre-coated 12-well plates. For hOATP1A2 and hOATP1C1, transient transfections were performed with either an empty vector, OATP1A2, or OATP1C1 using Lipofectamine 2000 according to the manufacturers protocol (Invitrogen). At 48 h post transfection, […]
Samples were analyzed using real-time quantitative PCR and Taqman Probes (Applied Biosystems). The relative gene expression was determined using the ΔΔCt method, and normalized to the mouse or human housekeeping gene, GAPDH. […]

patients with cancer = conditions: cited from earlier work
[2] = DBA/1LacJ, ip, 1 mg/kg, Plasma concentration of vincristine
[3] = ip, 1 mg/kg, Plasma concentration of vincristine

hOATP1C1, sequence (Q9NYB5 whole entry): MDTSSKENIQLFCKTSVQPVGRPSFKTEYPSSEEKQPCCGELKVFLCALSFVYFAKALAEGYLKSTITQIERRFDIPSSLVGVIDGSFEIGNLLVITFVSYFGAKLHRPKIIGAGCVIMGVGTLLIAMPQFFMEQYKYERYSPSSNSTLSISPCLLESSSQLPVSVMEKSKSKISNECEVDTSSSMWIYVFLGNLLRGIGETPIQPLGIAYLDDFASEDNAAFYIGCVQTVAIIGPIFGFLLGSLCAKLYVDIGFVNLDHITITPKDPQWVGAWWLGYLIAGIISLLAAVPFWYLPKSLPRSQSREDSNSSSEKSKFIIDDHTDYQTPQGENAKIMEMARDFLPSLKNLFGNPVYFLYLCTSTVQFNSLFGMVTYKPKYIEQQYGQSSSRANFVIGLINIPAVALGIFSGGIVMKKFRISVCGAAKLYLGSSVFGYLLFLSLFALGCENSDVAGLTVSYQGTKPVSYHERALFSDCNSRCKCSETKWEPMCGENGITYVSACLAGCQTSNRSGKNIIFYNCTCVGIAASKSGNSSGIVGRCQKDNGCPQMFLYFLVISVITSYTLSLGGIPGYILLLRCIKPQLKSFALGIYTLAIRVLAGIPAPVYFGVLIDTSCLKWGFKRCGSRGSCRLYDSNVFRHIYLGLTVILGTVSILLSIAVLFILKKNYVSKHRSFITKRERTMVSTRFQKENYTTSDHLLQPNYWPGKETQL

With `Cc1cn(-c2cc(NC(=O)c3ccc(C)c(Nc4nccc(-c5cccnc5)n4)c3)cc(C(F)(F)F)c2)cn1` [Nilotinib, nilotinib] the “EβG uptake (% of vehicle)” value (hOATP1B1) was 9.108 % of vehicle and 9.828 % of vehicle and 15.7637 % of vehicle.

With `CC[C@]1(O)C[C@H]2CN(CCc3c([nH]c4ccccc34)[C@@](C(=O)OC)(c3cc4c(cc3OC)N(C=O)[C@H]3[C@@](O)(C(=O)OC)[C@H](OC(C)=O)[C@]5(CC)C=CCN6CC[C@]43[C@@H]65)C2)C1` [Vincristine, vincristine] the concentration at 1 h ([1]; DBA/1LacJ, 1 mg/kg, Plasma concentration of vincristine, OATP1B2(-/-) + Vehicle, vincristine 1 mg/kg, 1 h) was 88.4 ng/mL, the concentration at 4 h ([1]; DBA/1LacJ, 1 mg/kg, Plasma concentration of vincristine, OATP1B2(-/-) + Vehicle, vincristine 1 mg/kg, 4 h) was 65.5 ng/mL and the concentration at 0.5 h ([1]; DBA/1LacJ, Plasma concentration of vincristine, OATP1B2(-/-) + Nilotinib (100 mg/kg pretreatment), vincristine 1 mg/kg, 0.5 h) was 225 ng/mL. The concentration at 1 h ([1]; DBA/1LacJ, Plasma concentration of vincristine, OATP1B2(-/-) + Nilotinib (100 mg/kg pretreatment), vincristine 1 mg/kg, 1 h) was 108 ng/mL, the concentration at 0.25 h [1, 2] was 707 ng/mL and the concentration at 0.5 h [1, 2] was 599 ng/mL. The concentration at 1 h [1, 2] was 315 ng/mL, the concentration at 4 h [1, 2] was 90.9 ng/mL and the “Plasma concentration of Vincristine” value ([1]; Wild-type mice, 2 h) was 104.1 ng/mL. For the same molecule, the AUC(0-t) ([1]; DBA/1LacJ, ip, 1 mg/kg) was 1290 ± 49.8 ng·h/mL, the Cmax ([1]; DBA/1LacJ, ip, 1 mg/kg) was 1130 ± 148 ng/mL and the AUC(0-t) ([1]; ip, 1 mg/kg) was 1060 ± 36.2 ng·h/mL. The Cmax ([1]; ip, 1 mg/kg) was 1190 ± 113 ng/mL, the concentration at 1 h ([1]; 1 mg/kg, Plasma concentration of Vincristine (ng/mL), OATP1A/1B(-/-) mice, 1 h) was 195 ng/mL and the concentration at 2 h ([1]; 1 mg/kg, Plasma concentration of Vincristine (ng/mL), OATP1A/1B(-/-) mice, 2 h) was 89.9 ng/mL. For the same molecule, the concentration at 2 h ([1]; 1 mg/kg, Plasma concentration of Vincristine (ng/mL), Wild-type mice, 2 h) was 112 ng/mL, the concentration at 1 h ([1]; 1 mg/kg, Plasma concentration of vincristine, Wild-type + Vehicle, vincristine 1 mg/kg, 1 h) was 116 ng/mL and the concentration at 0.5 h ([1]; Plasma concentration of vincristine, Wild-type + Nilotinib (100 mg/kg pretreatment), vincristine 1 mg/kg, 0.5 h) was 124 ng/mL. The concentration at 1 h ([1]; Plasma concentration of vincristine, Wild-type + Nilotinib (100 mg/kg pretreatment), vincristine 1 mg/kg, 1 h) was 104 ng/mL, the concentration at 0.25 h [1, 3] was 735 ng/mL and the concentration at 0.5 h [1, 3] was 376 ng/mL. The concentration at 1 h [1, 3] was 273 ng/mL, the concentration at 4 h [1, 3] was 114 ng/mL and the concentration at 4 h ([1]; ip, 1 mg/kg, Plasma concentration of vincristine, Wild-type mice, 1 mg/kg i.p., 4 h) was 102 ng/mL. For the same molecule, the “Contribution of transporter to cellular uptake of vincristine” value (hOATP1C1) was “do not appreciably contribute to the cellular uptake of vincristine” and the “Incidence of sensory peripheral neurotoxicity” value (patients with cancer) was “up to 100%”.
